Experimental data: the NIST ThermoML archive (doi:10.1016/j.jct.2012.09.032)

Details: Liquid, Ebulliometric method (Recirculating still)

O [water]
Details	vapor or sublimation pressure [kPa]
311.15 K	6.7
324.55 K	13.3
361.85 K	66.7

OCC(O)CO [glycerol]
Details	vapor or sublimation pressure [kPa]
477.25 K	6.7
493.35 K	13.3
505.55 K	20
513.95 K	26.7
520.65 K	33.3

CCO [ethanol]
Details	vapor or sublimation pressure [kPa]
295.25 K	6.7
307.45 K	13.3
315.05 K	20
321.05 K	26.7
325.65 K	33.3
329.55 K	40
332.85 K	46.7
335.95 K	53.3
338.65 K	60
341.15 K	66.7

CO [methanol]
Details	vapor or sublimation pressure [kPa]
282.55 K	6.7
293.75 K	13.3
301.45 K	20
307.35 K	26.7
311.85 K	33.3
315.75 K	40
319.05 K	46.7
322.05 K	53.3
324.65 K	60
327.25 K	66.7
